Tests used:
HflX (wild-type) = biological target: T1, HflX (wild-type) (Escherichia coli, UniProt P25519); assay: stopped-flow light scattering of […] ribosome splitting; assay type: biochemical; details: 1 uM HflX, 125 uM nucleotide, 0.15 uM 70S ribosomes, 5 mM Mg2+, 20 °C; compared with apo HflX; indirect functional read-out
T1 construct: full length, N-terminal His6-tag, pET28a

HflX ΔL372 = biological target: T2, HflX ΔL372 (Escherichia coli, UniProt P25519); assay: [γ-32P]GTP hydrolysis, phosphate release, multiple turnover; assay type: biochemical; details: ribosome-stimulated GTPase; 1 uM HflX, 125 uM GTP, 1 uM ribosomes per methods; labelled compound
T2 construct: C-terminal truncation: codon Leu372 (elsewhere printed Lys372) replaced by amber stop; N-terminal His6-tag, pET28a
T2 sequence (P25519 1-371): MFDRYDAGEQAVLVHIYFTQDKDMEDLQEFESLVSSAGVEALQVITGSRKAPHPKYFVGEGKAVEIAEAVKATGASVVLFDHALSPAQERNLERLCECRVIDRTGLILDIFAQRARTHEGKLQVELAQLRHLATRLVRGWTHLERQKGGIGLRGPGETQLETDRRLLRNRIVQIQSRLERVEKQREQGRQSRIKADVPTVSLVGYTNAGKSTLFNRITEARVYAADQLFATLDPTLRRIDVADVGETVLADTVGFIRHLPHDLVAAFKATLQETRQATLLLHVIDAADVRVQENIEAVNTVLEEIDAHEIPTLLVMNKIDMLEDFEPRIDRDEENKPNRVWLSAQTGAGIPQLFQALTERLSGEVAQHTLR

T1 sequence (P25519 whole entry): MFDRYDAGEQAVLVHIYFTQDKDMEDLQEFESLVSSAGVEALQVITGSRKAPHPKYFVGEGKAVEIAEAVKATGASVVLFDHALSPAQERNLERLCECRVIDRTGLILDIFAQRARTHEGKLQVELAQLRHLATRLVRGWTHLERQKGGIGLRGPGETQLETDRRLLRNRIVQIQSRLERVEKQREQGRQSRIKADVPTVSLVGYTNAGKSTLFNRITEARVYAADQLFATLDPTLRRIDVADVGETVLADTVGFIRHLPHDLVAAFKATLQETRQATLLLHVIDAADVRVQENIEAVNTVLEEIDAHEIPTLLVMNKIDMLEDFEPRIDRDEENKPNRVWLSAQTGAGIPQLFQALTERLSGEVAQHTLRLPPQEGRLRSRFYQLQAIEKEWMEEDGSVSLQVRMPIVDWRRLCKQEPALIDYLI

Nc1nc2c(ncn2[C@@H]2O[C@H](COP(=O)(O)OP(=O)(O)NP(=O)(O)O)[C@@H](O)[C@H]2O)c(=O)[nH]1 [GDPNP]
stopped-flow light scattering of 70S ribosome splitting (HflX (wild-type)): HflX•GDPNP dissociated ribosomes to a greater extent than HflX•GDP

Nc1nc2c(ncn2[C@@H]2O[C@H](COP(=O)(O)OP(=O)(O)OP(=O)(O)O)[C@@H](O)[C@H]2O)c(=O)[nH]1 [GTP]
[γ-32P]GTP hydrolysis, phosphate release, multiple turnover (HflX ΔL372): we tested the ΔL372 truncation variant for GTP hydrolysis finding that it is still active

— article PMC4770234, “The conserved GTPase HflX is a ribosome splitting factor that binds to the E-site of the bacterial ribosome” (Nucleic Acids Research, 2016)
